The subject of data set [1] is H23R cells. Description: Viability to CDDP after aptamer transfection (resistance index). Particulars: comparison value for apMAFG6F. The data set is classed as cell-based, human. The protocol:
FIG. 6. Viability curves combining the best dose of aptamers (25nM) and increasing doses of CDDP. Each experimental group was exposed for 72 h to 6 different CDDP concentrations after aptamers transfection; data were normalized to each untreated control, set to 100% and represent the mean±SD of at least 3 independent experiments performed in quadruplicate at each drug concentration for each cell line analyzed 25nM of aptamers and increasing doses of CDDP in H23S/R cells.
Once identified the best dose of aptamers, cells were transfected with aptamers and treated with increased doses of CDDP to assay viability and ROS production as mentioned above. In parallel, for all the experiments, cells were seeded in 24-well plates for aptamers extraction and confirmation of aptamers transfection.
HEK293 and H23S/R cells were seeded into 96-well plates then transfected with 5, 12.5, 25, 75 and 100 nM of MAFG aptamers or treated with PBS-Mg using Jet Pei PolyPlus transfection reagent (PolyPlus Transfection, USA). The dose of 25 nM aptamer was afterwards used in combination with increased doses of CDDP to assay viability and ROS production as described above. To confirm the aptamer-transfection efficiency cells were seeded in 24-well plates for aptamer isolation and confirmation of aptamer transfection by quantitative analysis. A Myc-DDK-tagged ORF clone of MAFG the negative control pCMV6 were used for in transient transfection (OriGene, USA) in combination with MAFG-aptamers following the same procedure.

The subject of the next data set is A2780-R cells. Nature of the data set: Viability to CDDP, resistant index. The data set is classed as cell-based, human. Particulars: versus parental A2780. From the text: (§1) Fifteen human cancer cell lines were purchased from ATCC (Manassas, Va.) or ECACC (Sigma-Aldrich, Spain) and cultured as recommended. The CDDP-resistant variants A2780R and OVCAR3R were selected after a final exposure to […] cisplatin, respectively (Farma Ferrer, Spain), as previously described for H23R and H460R variants The additional 11 human cell lines, PC-3, LNCAP, H727, HT29, A549, BT474, LoVo, IMIM-PC-2, SKOV3, SW780 and IMR90, were used for further validations. For viability assays cells were treated with increasing doses of CDDP. The epigenetic reactivation drugs 5Aza-2deoxycytidine (5Aza-dC) and trichostatin A (TSA) (Sigma-Aldrich, Spain) were used at […] and at 300nM respectively.

Data set [2] has as its system H23R cells. Nature of the data set: Viability to CDDP, resistant index. In kind it is cell-based, human. To be noted: versus H23S.
Description: as §1

Another data set has as its system H460R cells. Nature of the data set: Viability to CDDP, resistant index. To be noted: versus parental H460. The data set is classed as cell-based, human.
Description: as §1

Another data set relates to OVCAR3-R cells. Nature of the data set: Viability to CDDP, resistant index. The data set is classed as cell-based, human. Particulars: versus parental OVCAR3.
Description: as §1

In another data set the test system is LoVo cells. Nature of the data set: Viability to CDDP. The data set is classed as cell-based, human.
Description: as §1

Data set [3] concerns human MAFG peptides M1-M10. Description: ELONA of aptamers with 10 MAFG peptides. In kind it is binding. To be noted: digoxigenin aptamer 20 nM, 1 μg peptide, absorbance at 405 nm. The protocol:
FIG. 9. Characterization of the interaction of aptamers with MAFG. ELONAS in which the Aptamers bound to digoxigenin (20 nM) were incubated 1 hour at 37° C. with 10 peptides (1 μg) previously attached to the plate overnight. After incubating 1 hour with antidigoxigenin-Peroxidase 1/1000, ABTS was added and at 10 minutes the absorbance at 405 nm was measured.
In order to identify compounds of the invention and starting from the amino acidic sequence of human MAFG (NCBI Reference Sequence: NP_116100.2) of: SEQ ID NO 2: […]); we designed the following 10 peptides (please refer to table below):
Peptide M4, amino acids 49-68 corresponds to the basic MAFG region containing the tyrosine residue (Tyr64), as well as the arginine residue (Arg57) required for binding to the DNA, in addition to a nuclear localization signal.

Another data set has as its target T1, MAFG-Myc (Homo sapiens, UniProt O15525).
T1 construct: Myc (C); DDK (FLAG)
Nature of the data set: Enzyme-linked oligonucleotide assay (ELONA) of aptamers and aptamer populations. The data set is classed as binding. The protocol: FIG. 4. Analysis of the affinity of the aptamers against MAFG. (A) Quantification of aptamer-MAFG complexes by qPCR comparing absence (dot pattern) or presence (filled pattern) of MAFG protein. […] Bars represent the mean±SEM of 2-3 experiments (B) Specificity binding assay of aptamers to MAFG performed by ELONA. MAFG-myc was plated at 50ng/well in 96-well plates followed by incubation with 5′ digoxigenin-labeled aptamers from RND40, SEL3MAFG and SEL6MAFG. The figure represents the mean±SEM of 3 independent experiments. p<0.01. (C) Aptacytochemistry in HEK-293T cells transiently transfected with MAFG-myc. Cells overexpressing MAFG were incubated with 5′ Alexafluor 488-conjugated aptamers from RND40, SEL3MAFG or SEL6MAFG (upper panel) or Myc antibody (lower panel). Confocal microscopy images corresponding to the staining of nuclei with Hoechst (blue), antibodies (red), and aptamers (green) are shown. Arrowhead indicates positive cells. Bar=13 μm. (D) Study of individual aptamers affinity performed by ELONA. Recombinant MAFG was plated at 50 ng/well in 96-well plates followed by incubation with 5′ digoxigenin-labeled individual aptamers apMAGF3F, apMAFG6F and apMAFG11F. The figure represents the mean±SD of 2 independent experiments. (E) Secondary structures of aptamers apMAGF3F, apMAFG6F and apMAFG11F obtained by bioinformatics sequence analysis using the mFold software taking into account the lower free energy (AG).
(ii) Enzyme-linked oligonucleotide assay (ELONA): Aptamers were labeled by PCR using 5′ digoxigenin-labeled F3/5′ digoxigenin-labeled R3 primers (IBA Life Sciences). To assess the enrichment of the selected population and the affinity of the individual aptamers for the target, MAFG-Myc (50 ng) was incubated with the rounds 3, 6 of aptamers or the RND40 library. OD405nm values were determined using a SpectraFluor microplate reader (TECAN, Barcelona, Spain).

Data set [4] deals with H23R cells. Description: Semiquantitative RT-PCR of MAFG and HMOX1 in aptamer-transfected cells after platinum treatment. The data set is classed as cell-based, human. Particulars: aptamer-transfected H23R after platinum treatment vs H23R. The protocol: For semiquantitative RT-PCR, 500 ng of total RNA isolated from cell lines was used for RT reaction using PrimeScript™ RT Master (Clontech-Takara, USA) and subsequent semiquantitative PCR using Promega PCR Mix (Promega, USA) as previously described. Relative quantification was performed by measuring the intensity of band amplified using ImageJ software. Primers for HMOX1 (F: 5′-[…]-3′; R: 5′-[…]-3′), MAFG (F: 5′-[…]-3′; R: 5′-[…]-3′) and GAPDH (F: 5′-GAGAGACCCTCACTGCTG-3′; R: 5′-[…]-3′) were designed to include the probe from the array in order to assure the correct transcript identification.

Where “and” joins values, the source holds several entries; their conditions need not be identical. Equal values may be shown once.

T1 sequence (O15525 whole entry): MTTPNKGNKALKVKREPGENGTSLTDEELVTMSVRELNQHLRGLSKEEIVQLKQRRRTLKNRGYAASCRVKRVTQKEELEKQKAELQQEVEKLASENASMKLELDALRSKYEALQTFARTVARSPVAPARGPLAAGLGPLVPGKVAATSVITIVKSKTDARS

Take `[NH2][Pt]([NH2])([Cl])[Cl]` [CDDP, Cisplatin]: in the data set on H23R cells [1], the “CDDP resistance index without aptamer” value is given as 2.63. For the same molecule, the “Resistant-Index (RI) to CDDP” value with A2780-R cells was 3.00; with H23R cells [2], 3.35 and > 3; with H460R cells, 2.50; in the data set with OVCAR3-R cells, 2.96. In the data set with LoVo cells, the “IC50 of CDDP” value was “over 2 μg/ml”.

B1: GCGGATGAAGACTGGTGTCGATGCATGTGTAGTGCATTTCGAGCCGTTCTATTGGTGTGCCCTAAATACGAGCAAC (nucleic acid)
chain: GCGGATGAAGACTGGTGTCGATGCATGTGTAGTGCATTTCGAGCCGTTCTATTGGTGTGCCCTAAATACGAGCAAC
modifications: chemistry not given here
notes: DNA aptamer selected against the MAFG protein by SELEX
Regarding B1, the “interaction of aptamers with the 10 MAFG peptides by ELONA” value in [3] is recorded as “recognized peptide M4”. Besides, the “affinity against MAFG” value with MAFG-Myc (Example 1, individual aptamers) is given as “high affinity”. The “binding capacity to the target” value in the data set with MAFG-Myc (Example 3, individual sequences from SEL6MAFG) is “high binding capacity to the target in the nanomolar range”. The “binding signal relative to BSA protein” value with MAFG-Myc (individual sequences from SEL6MAFG) was “four times that of the BSA protein”. In the data set on H23R cells [4], the HMOX1 expression entry is “decrease in their expression” and the MAFG expression result is given as “decrease in their expression”.

These data come from patent US20200270310A1, “MAFG AS A POTENTIAL THERAPEUTIC TARGET TO RESTORE CHEMOSENSITIVITY IN PLATINUM-RESISTANT CANCER CELLS” (FUNDACÓIN PARA LA INVESTIGACIÓN BIOMÉDICA DEL HOSPITAL …, priority 2017, published 2020).
